Test results reported in ChEMBL document CHEMBL3885881, “DrugMatrix”.

Species: Rattus norvegicus
Assay: DrugMatrix - Regimen: Daily Repeat
Type: toxicity, organism-based, Sprague-Dawley
Design: regimen Daily Repeat, gender Male, age 6-8 weeks
Conditions: in vivo, po, route oral GAVAGE, vehicle 100 % WATER; for BASOPHIL / EOSINOPHIL / ERYTHROCYTE COUNT / HEMATOCRIT / HEMOGLOBIN / LEUKOCYTE COUNT / LYMPHOCYTE / MEAN CORPUSCULAR HEMOGLOBIN / MEAN CORPUSCULAR HEMOGLOBIN CONCENTRATION / MEAN CORPUSCULAR VOLUME / MONOCYTE / NEUTROPHIL / PLATELET COUNT: tissue Blood; for ALANINE AMINOTRANSFERASE / ALBUMIN / ALKALINE PHOSPHATASE / ASPARTATE AMINOTRANSFERASE / BLOOD UREA NITROGEN / CARBON DIOXIDE / CHLORIDE / CHOLESTEROL / CREATINE PHOSPHOKINASE / CREATININE / GLUCOSE / LACTATE DEHYDROGENASE / LIPASE / PHOSPHORUS / POTASSIUM / SODIUM / TOTAL BILIRUBIN / TOTAL PROTEIN / URIC ACID: tissue Plasma
[1] = 0 mg/kg, 96 h, dose level Control, time 4 day
[2] = 0 mg/kg, […], dose level Control, time 6 day
[3] = 0 mg/kg, […], dose level Control, time 14 day
[4] = 210 mg/kg, 96 h, dose level High, time 4 day
[5] = 210 mg/kg, […], dose level High, time 6 day
[6] = 210 mg/kg, […], dose level High, time 14 day

OCC1CO1 (configuration not stated) [GLYCIDOL]
BASOPHIL [1]: 0.47%
EOSINOPHIL [1]: 0.58%
ERYTHROCYTE COUNT [1]: 6.84 x10E6/uL
HEMATOCRIT [1]: 44.27%
HEMOGLOBIN [1]: 14.08 G/DL
LEUKOCYTE COUNT [1]: 13.39 x10E3/uL
LYMPHOCYTE [1]: 83.57%
MEAN CORPUSCULAR HEMOGLOBIN [1]: 20.57 pg
MEAN CORPUSCULAR HEMOGLOBIN CONCENTRATION [1]: 31.77 G/DL
MEAN CORPUSCULAR VOLUME [1]: 64.68 fL
MONOCYTE [1]: 1.92%
NEUTROPHIL [1]: 12.95%
PLATELET COUNT [1]: 1533.67 x10E3/uL
ALANINE AMINOTRANSFERASE [1]: 28.17 u/L
ALBUMIN [1]: 3.82 G/DL
ALKALINE PHOSPHATASE [1]: 354.33 u/L
ASPARTATE AMINOTRANSFERASE [1]: 73.83 u/L
BLOOD UREA NITROGEN [1]: 16 mg/dL
CARBON DIOXIDE [1]: 27.17 mmol/L
CHLORIDE [1]: 104.83 MEQ/L
CHOLESTEROL [1]: 83.33 mg/dL
CREATINE PHOSPHOKINASE [1]: 288 u/L
CREATININE [1]: 0.33 mg/dL
GLUCOSE [1]: 181.33 mg/dL
LACTATE DEHYDROGENASE [1]: 173.17 u/L
LIPASE [1]: 17.67 u/L
PHOSPHORUS [1]: 11.5 mg/dL
POTASSIUM [1]: 6.8 MEQ/L
SODIUM [1]: 147 MEQ/L
TOTAL BILIRUBIN [1]: 0.35 mg/dL
TOTAL PROTEIN [1]: 6.35 G/DL
URIC ACID [1]: 1.55 mg/dL
BASOPHIL [2]: 0.33%
EOSINOPHIL [2]: 0.85%
ERYTHROCYTE COUNT [2]: 6.98 x10E6/uL
HEMATOCRIT [2]: 38.58%
HEMOGLOBIN [2]: 14.25 G/DL
LEUKOCYTE COUNT [2]: 11.01 x10E3/uL
LYMPHOCYTE [2]: 85.07%
MEAN CORPUSCULAR HEMOGLOBIN [2]: 20.47 pg
MEAN CORPUSCULAR HEMOGLOBIN CONCENTRATION [2]: 31.45 G/DL
MEAN CORPUSCULAR VOLUME [2]: 64.9 fL
MONOCYTE [2]: 1.9%
NEUTROPHIL [2]: 11.42%
PLATELET COUNT [2]: 1289.67 x10E3/uL
BASOPHIL [3]: 0.52%
EOSINOPHIL [3]: 0.55%
ERYTHROCYTE COUNT [3]: 7.72 x10E6/uL
HEMATOCRIT [3]: 51.87%
HEMOGLOBIN [3]: 15.32 G/DL
LEUKOCYTE COUNT [3]: 16.2 x10E3/uL
LYMPHOCYTE [3]: 85.13%
MEAN CORPUSCULAR HEMOGLOBIN [3]: 19.85 pg
MEAN CORPUSCULAR HEMOGLOBIN CONCENTRATION [3]: 29.52 G/DL
MEAN CORPUSCULAR VOLUME [3]: 67.17 fL
MONOCYTE [3]: 1.7%
NEUTROPHIL [3]: 11.6%
PLATELET COUNT [3]: 1104.17 x10E3/uL
ALANINE AMINOTRANSFERASE [2]: 28.17 u/L
ALBUMIN [2]: 3.78 G/DL
ALKALINE PHOSPHATASE [2]: 385.33 u/L
ASPARTATE AMINOTRANSFERASE [2]: 78 u/L
BLOOD UREA NITROGEN [2]: 16.83 mg/dL
CARBON DIOXIDE [2]: 26.67 mmol/L
CHLORIDE [2]: 106.83 MEQ/L
CHOLESTEROL [2]: 82.67 mg/dL
CREATINE PHOSPHOKINASE [2]: 225.5 u/L
CREATININE [2]: 0.27 mg/dL
GLUCOSE [2]: 179.5 mg/dL
LACTATE DEHYDROGENASE [2]: 98.33 u/L
LIPASE [2]: 14.67 u/L
PHOSPHORUS [2]: 12.28 mg/dL
POTASSIUM [2]: 7.03 MEQ/L
SODIUM [2]: 150.33 MEQ/L
TOTAL BILIRUBIN [2]: 0.38 mg/dL
TOTAL PROTEIN [2]: 6.45 G/DL
URIC ACID [2]: 1.6 mg/dL
ALANINE AMINOTRANSFERASE [3]: 37 u/L
ALBUMIN [3]: 4.13 G/DL
ALKALINE PHOSPHATASE [3]: 342 u/L
ASPARTATE AMINOTRANSFERASE [3]: 71 u/L
BLOOD UREA NITROGEN [3]: 16.5 mg/dL
CARBON DIOXIDE [3]: 28.17 mmol/L
CHLORIDE [3]: 104 MEQ/L
CHOLESTEROL [3]: 70.67 mg/dL
CREATINE PHOSPHOKINASE [3]: 287.67 u/L
CREATININE [3]: 0.38 mg/dL
GLUCOSE [3]: 150.17 mg/dL
LACTATE DEHYDROGENASE [3]: 81.33 u/L
LIPASE [3]: 16 u/L
PHOSPHORUS [3]: 11.32 mg/dL
POTASSIUM [3]: 6.22 MEQ/L
SODIUM [3]: 147.33 MEQ/L
TOTAL BILIRUBIN [3]: 0.43 mg/dL
TOTAL PROTEIN [3]: 6.55 G/DL
URIC ACID [3]: 1.38 mg/dL
BASOPHIL [4]: 0.37%
EOSINOPHIL [4]: 0.43%
ERYTHROCYTE COUNT [4]: 6.84 x10E6/uL
HEMATOCRIT [4]: 44.53%
HEMOGLOBIN [4]: 13.97 G/DL
LEUKOCYTE COUNT [4]: 11.04 x10E3/uL
LYMPHOCYTE [4]: 82.73%
MEAN CORPUSCULAR HEMOGLOBIN [4]: 20.43 pg
MEAN CORPUSCULAR HEMOGLOBIN CONCENTRATION [4]: 31.4 G/DL
MEAN CORPUSCULAR VOLUME [4]: 65.2 fL
MONOCYTE [4]: 2.77%
NEUTROPHIL [4]: 12.93%
PLATELET COUNT [4]: 1402.67 x10E3/uL
ALANINE AMINOTRANSFERASE [4]: 41.67 u/L
ALBUMIN [4]: 3.9 G/DL
ALKALINE PHOSPHATASE [4]: 368 u/L
ASPARTATE AMINOTRANSFERASE [4]: 81.33 u/L
BLOOD UREA NITROGEN [4]: 15.33 mg/dL
CARBON DIOXIDE [4]: 26 mmol/L
CHLORIDE [4]: 105.33 MEQ/L
CHOLESTEROL [4]: 107.33 mg/dL
CREATINE PHOSPHOKINASE [4]: 232 u/L
CREATININE [4]: 0.4 mg/dL
GLUCOSE [4]: 184 mg/dL
LACTATE DEHYDROGENASE [4]: 181 u/L
LIPASE [4]: 21 u/L
PHOSPHORUS [4]: 10.67 mg/dL
POTASSIUM [4]: 6.63 MEQ/L
SODIUM [4]: 147.33 MEQ/L
TOTAL BILIRUBIN [4]: 0.37 mg/dL
TOTAL PROTEIN [4]: 6.6 G/DL
URIC ACID [4]: 1.53 mg/dL
BASOPHIL [5]: 0.33%
EOSINOPHIL [5]: 0.33%
ERYTHROCYTE COUNT [5]: 6.72 x10E6/uL
HEMATOCRIT [5]: 43.03%
HEMOGLOBIN [5]: 13.67 G/DL
LEUKOCYTE COUNT [5]: 11.41 x10E3/uL
LYMPHOCYTE [5]: 88.93%
MEAN CORPUSCULAR HEMOGLOBIN [5]: 20.37 pg
MEAN CORPUSCULAR HEMOGLOBIN CONCENTRATION [5]: 31.77 G/DL
MEAN CORPUSCULAR VOLUME [5]: 64.1 fL
MONOCYTE [5]: 2.73%
NEUTROPHIL [5]: 6.93%
PLATELET COUNT [5]: 1416.33 x10E3/uL
BASOPHIL [6]: 0.43%
EOSINOPHIL [6]: 1.53%
ERYTHROCYTE COUNT [6]: 6.88 x10E6/uL
HEMATOCRIT [6]: 45.62%
HEMOGLOBIN [6]: 13.7 G/DL
LEUKOCYTE COUNT [6]: 12.42 x10E3/uL
LYMPHOCYTE [6]: 88.5%
MEAN CORPUSCULAR HEMOGLOBIN [6]: 19.93 pg
MEAN CORPUSCULAR HEMOGLOBIN CONCENTRATION [6]: 30.02 G/DL
MEAN CORPUSCULAR VOLUME [6]: 66.33 fL
MONOCYTE [6]: 1.9%
NEUTROPHIL [6]: 6.83%
PLATELET COUNT [6]: 1312.75 x10E3/uL
ALANINE AMINOTRANSFERASE [5]: 34 u/L
ALBUMIN [5]: 3.93 G/DL
ALKALINE PHOSPHATASE [5]: 398 u/L
ASPARTATE AMINOTRANSFERASE [5]: 76.33 u/L
BLOOD UREA NITROGEN [5]: 15.67 mg/dL
CARBON DIOXIDE [5]: 24.33 mmol/L
CHLORIDE [5]: 110 MEQ/L
CHOLESTEROL [5]: 95.33 mg/dL
CREATINE PHOSPHOKINASE [5]: 145 u/L
CREATININE [5]: 0.3 mg/dL
GLUCOSE [5]: 175.33 mg/dL
LACTATE DEHYDROGENASE [5]: 95.33 u/L
LIPASE [5]: 6 u/L
PHOSPHORUS [5]: 11.3 mg/dL
POTASSIUM [5]: 6.9 MEQ/L
SODIUM [5]: 151.67 MEQ/L
TOTAL BILIRUBIN [5]: 0.37 mg/dL
TOTAL PROTEIN [5]: 6.67 G/DL
URIC ACID [5]: 1.63 mg/dL
ALANINE AMINOTRANSFERASE [6]: 34 u/L
ALBUMIN [6]: 4.45 G/DL
ALKALINE PHOSPHATASE [6]: 332.5 u/L
ASPARTATE AMINOTRANSFERASE [6]: 55.5 u/L
BLOOD UREA NITROGEN [6]: 17 mg/dL
CARBON DIOXIDE [6]: 27 mmol/L
CHLORIDE [6]: 105 MEQ/L
CHOLESTEROL [6]: 100.75 mg/dL
CREATINE PHOSPHOKINASE [6]: 116.5 u/L
CREATININE [6]: 0.32 mg/dL
GLUCOSE [6]: 136.5 mg/dL
LACTATE DEHYDROGENASE [6]: 63.5 u/L
LIPASE [6]: 9.75 u/L
PHOSPHORUS [6]: 12.12 mg/dL
POTASSIUM [6]: 6.47 MEQ/L
SODIUM [6]: 148.25 MEQ/L
TOTAL BILIRUBIN [6]: 0.35 mg/dL
TOTAL PROTEIN [6]: 7.2 G/DL
URIC ACID [6]: 1.62 mg/dL
